In brackets after ≈: the same amount, converted by molar mass.
How the values were obtained:
[1] = tested on: C. albicans ATCC 90028; assay: Broth dilution IC50 determination; format: cell-based; settings: Candida albicans, ATCC90028, SD broth, 37°C, 24 h, OD 600 nm, read-out: Anti-Candida Activity (IC50± S.D.) C. albicans ATCC90028
Protocol: (§1) Broth dilution technique was employed to determine the IC50 values of all the synthesized 1,2,3 triazole derivatives (3a-c) against C. albicans ATCC 90028, C. glabrata ATCC 90030, C. tropicalis ATCC 750 and four clinical isolates of C. albicans namely D27, D31, D39 (FLC-sensitive) and D15.9 (FLC-resistant). The strains were maintained on yeast extract:peptone:dextrose ([…]) nutrient agar (2.5%) slants at 4°C. The test compounds were dissolved in DMSO with less than 4% concentration of it in the final test volume. Different concentrations (1000… 7.8 μg/mL) of test compounds in Sabouraud dextrose (SD) broth medium were dispensed into the wells, then inoculated with the test organism with approx. 2.5 × 10^3 cells/mL and incubated at 37°C for 24 h. After incubation period, the optical density was measured at 600 nm by using Thermo Scientific Multiskan Go plate reader. […] All the experiments were done in triplicate at separate times.

[2] = tested on: C. albicans D27 (FLC-sensitive clinical isolate); assay: Broth dilution IC50 determination; format: cell-based; settings: Candida albicans, 24 h; read-out: Anti-Candida Activity (IC50± S.D.) C. albicans D27
Protocol: as §1

[3] = tested on: C. albicans D31 (FLC-sensitive clinical isolate); assay: Broth dilution IC50 determination; format: cell-based; settings: Candida albicans, 24 h; read-out: Anti-Candida Activity (IC50± S.D.) C. albicans D31
Protocol: as §1

[4] = tested on: C. albicans D39 (FLC-sensitive clinical isolate); assay: Broth dilution IC50 determination; format: cell-based; settings: Candida albicans, 24 h; read-out: Anti-Candida Activity (IC50± S.D.) C. albicans D39
Protocol: as §1

[5] = tested on: C. glabrata ATCC 90030; assay: Broth dilution IC50 determination; format: cell-based; settings: Nakaseomyces glabratus, ATCC90030, SD broth, 37°C, 24 h, OD 600 nm, read-out: Anti-Candida Activity (IC50± S.D.) C. glabrata ATCC90030
Protocol: as §1

[6] = tested on: C. tropicalis ATCC 750; assay: Broth dilution IC50 determination; format: cell-based; settings: Candida tropicalis, ATCC750, SD broth, 37°C, 24 h, OD 600 nm, read-out: Anti-Candida Activity (IC50± S.D.) C. tropicalis ATCC750
Protocol: as §1

[7] = tested on: C. albicans D15.9 (FLC-resistant clinical isolate); assay: Broth dilution IC50 / MIC determination; format: cell-based; settings: Candida albicans; for IC50: 24 h, read-out: Anti-Candida Activity (IC50± S.D.) C. albicans D15.9
Protocol: as §1

[8] = Cell proliferation assay (cytotoxicity); format: cell-based; settings: monkey, Vero cells (monkey kidney fibroblasts), positive control
Protocol: The in vitro cytotoxicity of compounds 3a and 3b to mammalian cells was also determined. The assay was performed in 96-well tissue culture-treated plates as described earlier. Vero cells (monkey kidney fibroblasts) were seeded to the wells of 96-well plate at a density of 25,000 cells/well and incubated for 24 h. Samples at different concentrations were added and plates were again incubated for 48 h. The number of viable cells was determined by Neutral Red assay. IC50 values were obtained from dose response curves. Doxorubicin was used as a positive control for cytotoxicity.

[9] = tested on: C. albicans ATCC 90028 (Standard); assay: Disk diffusion assay; format: cell-based; settings: 20 μg per disk, 48 h
Protocol: (§2) Disk diffusion assay was performed using C. albicans ATCC 90028 (standard), the two clinical isolates, C. albicans D27 (FLC-susceptible), and C. albicans D15.9 (FLC-resistant) for the lead inhibitors 3a and 3b. The C. albicans cells were inoculated into liquid SD medium and grown over night at 37°C. The cells were then centrifuged at 3000 rpm for 5 min, washed three times with PBS and then suspended in PBS again. Approximately, 10^5 cells/mL were inoculated into molten SD agar medium at 42°C and poured into 100-mm-diameter petriplates. Sterilized 4 mm disks of Whatman paper were placed on solid agar and 1, 2, and 4 μL of 3a and 2, 4, and 8 μL of 3b from the stock solution of 10 mg/mL were spotted on the disk. […] The diameter of zone of inhibition (ZOI) was recorded in millimetres after 48 h and was compared with that of control. This experiment was repeated thrice and values were shown in terms of mean ±standard error of mean.

[10] = tested on: C. albicans D15.9 (FLC-resistant); assay: Disk diffusion assay; format: cell-based; settings: 48 h
Protocol: as §2

[11] = tested on: C. albicans D27 (FLC-susceptible); assay: Disk diffusion assay; format: cell-based; settings: Candida albicans; 20 μg per disk, 48 h; read-out: Zone of Inhibition
Protocol: as §2

[12] = tested on: C. albicans; assay: Disk diffusion assay, appearance of zones (strains not distinguished); format: cell-based
Protocol: as §2

[13] = tested on: C. albicans ATCC 90028 (Standard); assay: Growth assay (growth curve); format: cell-based; settings: 40 μg/mL of FLC
Protocol: (§3) The C. albicans cells were freshly revived by subculture on the SD agar plate. A loopful of inoculum was introduced into the SD broth and cells were grown for 16 h at 37°C before use. Approximately 2×10^3 cells/mL were then inoculated into the freshly prepared 50 mL sterile SD medium. […] At predetermined time periods (0, 2, 4, 6, 8, 10, 12, 14, 16, 18, 20 22, and 24 after incubation with agitation at 37°C), 1 mL aliquot of each sample was removed from the conical flask and growth was measured tubidometrically at 600 nm using Thermo Multiskan spectrophotometer. Optical density was recorded for each concentration against time (h).

[14] = tested on: C. albicans D15.9 (FLC-resistant); assay: Growth assay (growth curve); format: cell-based; settings: 40 μg/mL of FLC
Protocol: as §3

[15] = tested on: C. albicans D27 (FLC-susceptible); assay: Growth assay (growth curve); format: cell-based; settings: 40 μg/mL of FLC
Protocol: as §3

[16] = tested on: C. albicans ATCC 90028, C. albicans D27 (FLC-susceptible) and C. albicans D15.9 (FLC-resistant); assay: Time kill curve study, three strains; format: cell-based; settings: 40 μg/mL; C. albicans standard and FLC-resistant
Protocol: Time-kill curves were used for testing the fungicidal or fungistatic nature of the lead inhibitors 3a and 3b. The experimental procedure was performed according to the method reported by Wang et al.. C. albicans ATCC 90028, C. albicans D27 (FLC-susceptible) and C. albicans D15.9 (FLC-resistant) strains were used as test organisms. Fluconazole was used as a positive control. Freshly prepared sterile YEPD medium was inoculated by fresh culture (approx. 2×10^3 cells) of test organisms in different conical flasks. The cells were exposed to the test compounds at 2MIC, MIC and MIC/2 values, separately. All the conical flasks having different sets of test compounds and concentrations were incubated at 37°C and 160 rpm. At predetermined time points (0, 4, 12, 24, and 48 h after incubation with agitation at 37°C), a 100-μL aliquot was removed from every solution and appropriately diluted in sterile water. A 100-μl aliquot from each dilution was spread over the YEPD agar plate. Colony counts were determined after incubation at 37°C for 24 h. All the time-kill curve experiments were conducted in duplicate and mean colony count data (log10 CFU/mL) were plotted as a function of time for each strain.

[17] = Hemolytic assay; format: cell-based; settings: human, 37°C, read-out: Hemolysis of hRBCs
Protocol: Human blood from a healthy individual was collected in tubes containing EDTA as anti-coagulant. The erythrocytes were harvested by centrifugation for 10 min at 2000 rpm and 20°C, washed three times in PBS. To the pellet, PBS was added to yield a 10% (v/v) erythrocytes/PBS suspension. The 10% suspension was then diluted 1:10 in PBS. From each suspension, 100 μL was added in triplicate to 100 μL of a different dilution series of test compounds in the same buffer in micro centrifuge tubes. […] The tubes were incubated for 1 h at 37°C and then centrifuged for 10 min at 2000 rpm and 20°C. From the supernatant, 150 μL was transferred to a flat-bottomed microtiter plate (Tarson), and the absorbance was measured spectrophotometrically at 450 nm. The hemolysis percentage was calculated by following equation: %Hemolysis=[(A450oftestcompoundtreatedsample−A450ofbuffertreatedsample)÷(A450of1%TritonX−100treatedsample−A450ofbuffertreatedsample)]×100

[18] = tested on: ergosterol biosynthesis; assay: Ergosterol estimation assay; settings: 40 μg/mL of FLC, 16 h
[19] = tested on: ergosterol biosynthesis; assay: Ergosterol estimation assay; settings: 40 μg/mL of FLC, 16 h; remark: listed apart in the source
[20] = target: T1, plasma membrane H+ ATPase (Candida albicans, UniProt P28877); assay: Proton extrusion measurement (H+ efflux); format: cell-based, C. albicans ATCC 90028; settings: glucose 5mM alone
T1 construct: endogenous in cells; host or cells: C. albicans ATCC 90028; clinical isolates C. albicans D27 (FLC-susceptible) and D15.9 (FLC-resistant); mid-log phase whole cells
Protocol: (§4) The proton pumping activity of C. albicans was determined by monitoring acidification of external medium by measuring pH as describe earlier. In brief, the mid-log phase cells were harvested from SD medium by centrifugation at 3000 rpm for 15 min which is followed by three washings with phosphate buffer saline (PBS). A solution containing 0.1 M KCl and 0.1 mM CaCl2 in distilled water was prepared. Compounds 3a and 3b at the concentrations of 50 and 100 μg/mL were separately added in this solution. […] Initial pH was adjusted to 7.0 using 0.01 M HCl/NaOH. Approximately 0.2 g of cells were suspended in each set of solution. Suspension was kept in a double-jacketed glass container with constant stirring. Again, the pH of suspension was maintained as 7.0 for 1 min by using 0.01 N NaOH. The rate of H^+ extrusion was then monitored and calculated from the volume of 0.01 N NaOH consumed per min per mg weight of cells. Glucose has been reported as the stimulator of proton extrusion pump. Therefore above experiment was also repeated in the presence of 5 mM of glucose.

[21] = target: T1, plasma membrane H+ ATPase; assay: Proton extrusion measurement (H+ efflux); format: cell-based, C. albicans D27 (FLC-susceptible)
Protocol: as §4

[22] = target: T1, plasma membrane H+ ATPase; assay: cell-based; parameters: species or system C. albicans D15.9 (FLC-resistant)
Protocol: as §4

T1 sequence (P28877 whole entry): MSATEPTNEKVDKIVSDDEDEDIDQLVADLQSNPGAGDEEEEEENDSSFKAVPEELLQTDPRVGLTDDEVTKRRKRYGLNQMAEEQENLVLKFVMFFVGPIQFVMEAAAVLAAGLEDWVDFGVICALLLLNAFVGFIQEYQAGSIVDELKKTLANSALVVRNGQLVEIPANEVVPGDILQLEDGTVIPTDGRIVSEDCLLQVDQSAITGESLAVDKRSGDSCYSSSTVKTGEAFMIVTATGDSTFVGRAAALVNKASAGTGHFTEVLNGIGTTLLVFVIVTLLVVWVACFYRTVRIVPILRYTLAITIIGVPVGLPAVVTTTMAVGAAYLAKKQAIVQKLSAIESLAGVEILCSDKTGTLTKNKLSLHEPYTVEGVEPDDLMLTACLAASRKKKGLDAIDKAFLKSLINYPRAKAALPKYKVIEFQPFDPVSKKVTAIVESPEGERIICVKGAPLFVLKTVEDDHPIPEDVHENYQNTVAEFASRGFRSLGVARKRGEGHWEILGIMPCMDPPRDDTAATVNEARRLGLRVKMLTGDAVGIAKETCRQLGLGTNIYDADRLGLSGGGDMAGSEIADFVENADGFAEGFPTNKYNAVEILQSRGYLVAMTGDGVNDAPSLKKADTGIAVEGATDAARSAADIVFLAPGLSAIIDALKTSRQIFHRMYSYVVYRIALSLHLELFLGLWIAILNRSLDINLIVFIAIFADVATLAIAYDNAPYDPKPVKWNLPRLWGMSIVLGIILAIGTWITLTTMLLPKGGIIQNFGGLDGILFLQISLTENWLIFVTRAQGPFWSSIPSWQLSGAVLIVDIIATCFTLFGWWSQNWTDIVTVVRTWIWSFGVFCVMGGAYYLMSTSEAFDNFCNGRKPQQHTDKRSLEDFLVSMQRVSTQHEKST

In the case of `c1ccc(Cn2cc(COc3cccc4ccccc34)nn2)cc1` [Compound 3c, 1-Benzyl-4-((naphthalen-1-yloxy)methyl)-1H-1,2,3-triazole], the IC50 [1] is reported as 91.2 ± 0.76 µg/mL (≈ 289 µM), the IC50 [2] is reported as 43.7 ± 1.18 µg/mL (≈ 139 µM) and the IC50 [3] is reported as 119 ± 2.94 µg/mL (≈ 377 µM). For the same compound, the IC50 [4] was 62.2 ± 1.07 µg/mL (≈ 197 µM), the IC50 [5] was 107 ± 1.41 µg/mL (≈ 339 µM) and the IC50 [6] was 38.2 ± 0.83 µg/mL (≈ 121 µM). The IC50 [7] was 66.9 ± 1.84 µg/mL (≈ 212 µM).

With `COc1cccc2c1C(=O)c1c(O)c3c(c(O)c1C2=O)C[C@@](O)(C(=O)CO)C[C@@H]3O[C@H]1C[C@H](N)[C@H](O)[C@H](C)O1` [Doxorubicin] the IC50 at 48 h [8] was > 5 µg/mL.

With `OC(Cn1cncn1)(Cn1cncn1)c1ccc(F)cc1F` [FLC, Fluconazole, reference compound] the IC50 [1] was 15.6 ± 0.65 µg/mL (≈ 51 µM), the IC50 [2] was < 7.5 µg/mL and the IC50 [3] was < 7.5 µg/mL. The IC50 [4] was < 7.5 µg/mL, the IC50 [5] was 7.81 ± 0.88 µg/mL (≈ 25.5 µM) and the IC50 [6] was 8.55 ± 1.59 µg/mL (≈ 27.9 µM). The MIC [7] was > 1 µg/mL, the IC50 [7] was > 1000 µg/mL and the “Zone of Inhibition” value [9] was 26± 1.02 mm. For the same compound, the zone of inhibition at 20 µg/disc ([9]; Candida albicans, ATCC90028) was 26 mm, the “Zone of Inhibition” value ([10]; 20 μg per disk) was 24± 0.74 mm and the zone of inhibition at 20 µg/disc ([10]; Candida albicans) was 24 mm. For the same compound, the zone of inhibition at 20 µg/disc [11] was 27 ± 1.35 mm, the “Appearance of zone around disks (clear = fungicidal nature, turbid = fungistatic nature)” value [12] was “turbid” and the “Time by which lag phase was over” value [13] was 16 h. The “Time by which lag phase was over” value [14] was 16 h, the “Time by which lag phase was over” value [15] was 20 h and the “CFU/mL, treated versus untreated cells” value [16] was “no significant difference in CFU/mL”. For the same compound, the hemolysis at 1 h, 500 μg/mL [17] was 68.6%, the “Decrease in ergosterol content” value [18] was 100% and the “Decrease in ergosterol content” value [19] was 96%.

In the case of `OC[C@H]1OC(O)[C@H](O)[C@@H](O)[C@@H]1O` (stereo partly shown) [Glucose, reference compound], the “Range of relative H+ efflux rate” value [20] is reported as 54.95 ± 2.7 ×10^−6 mol min^−1 mg cells^−1, the “Increase of the rate of H+ extrusion” value ([21]; 5 mM of glucose) is reported as 24% and the “Range of relative H+ efflux rate” value ([21]; glucose 5mM alone) is reported as 40.00 ± 2.0 ×10^−6 mol min^−1 mg cells^−1. For the same compound, the “Increase of the rate of H+ extrusion” value ([22]; 5 mM of glucose) was 36% and the “Range of relative H+ efflux rate” value ([22]; glucose 5mM alone) was 43.33 ± 2.1 ×10^−6 mol min^−1 mg cells^−1.
